Here are results for six compounds from paper PMC12881681 (Molecular Pharmacology, 2025).

The target in data set [1] is T1, human liver cytosolic AOX1 (Homo sapiens, UniProt Q06278).
T1 sequence (Q06278 1-1338): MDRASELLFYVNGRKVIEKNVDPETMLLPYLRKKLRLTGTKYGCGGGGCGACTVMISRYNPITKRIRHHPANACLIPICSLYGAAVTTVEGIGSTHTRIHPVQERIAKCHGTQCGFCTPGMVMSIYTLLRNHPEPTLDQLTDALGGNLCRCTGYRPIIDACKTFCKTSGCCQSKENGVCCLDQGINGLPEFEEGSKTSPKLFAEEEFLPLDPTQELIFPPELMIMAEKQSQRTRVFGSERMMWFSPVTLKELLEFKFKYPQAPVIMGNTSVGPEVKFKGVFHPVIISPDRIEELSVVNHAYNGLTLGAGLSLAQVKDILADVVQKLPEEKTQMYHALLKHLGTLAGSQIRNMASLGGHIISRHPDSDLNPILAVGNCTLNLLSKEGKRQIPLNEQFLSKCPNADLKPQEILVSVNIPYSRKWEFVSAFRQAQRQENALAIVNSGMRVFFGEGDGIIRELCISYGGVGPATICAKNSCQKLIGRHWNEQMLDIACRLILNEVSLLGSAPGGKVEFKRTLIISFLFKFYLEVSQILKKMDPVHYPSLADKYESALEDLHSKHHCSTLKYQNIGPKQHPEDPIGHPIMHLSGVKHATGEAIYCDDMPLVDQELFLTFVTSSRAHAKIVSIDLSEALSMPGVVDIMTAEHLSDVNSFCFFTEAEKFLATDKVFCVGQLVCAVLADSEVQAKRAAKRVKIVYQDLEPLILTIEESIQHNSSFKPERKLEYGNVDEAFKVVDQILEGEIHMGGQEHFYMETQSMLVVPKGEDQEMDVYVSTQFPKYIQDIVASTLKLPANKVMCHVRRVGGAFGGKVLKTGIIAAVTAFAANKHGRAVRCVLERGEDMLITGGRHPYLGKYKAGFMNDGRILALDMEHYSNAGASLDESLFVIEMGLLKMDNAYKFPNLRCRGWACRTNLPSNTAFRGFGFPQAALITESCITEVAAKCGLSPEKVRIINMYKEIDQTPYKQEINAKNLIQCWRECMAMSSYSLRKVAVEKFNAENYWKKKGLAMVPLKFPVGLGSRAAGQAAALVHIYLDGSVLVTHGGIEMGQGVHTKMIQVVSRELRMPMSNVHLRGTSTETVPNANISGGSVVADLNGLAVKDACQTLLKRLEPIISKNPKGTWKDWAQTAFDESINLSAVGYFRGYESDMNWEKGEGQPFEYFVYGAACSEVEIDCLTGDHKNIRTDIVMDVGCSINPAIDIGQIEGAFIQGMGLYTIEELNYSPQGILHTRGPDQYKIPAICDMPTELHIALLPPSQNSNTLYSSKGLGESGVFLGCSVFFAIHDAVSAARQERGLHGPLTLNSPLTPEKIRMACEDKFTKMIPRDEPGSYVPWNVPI
As to the kind of experiment: Dialysis experiment (reversibility of AOX1 inactivation). The format is biochemical. Set-up: Enzymatic reaction was initiated by adding human liver cytosol (100 μg); tissue Corning, Inc. (Gentest brand) 452115; host or cells: human liver cytosol, pool of 150 donors. As to conditions: 1.5 μM; for recovery of carbazeran 4-oxidation activity after dialysis: 4 and 24 hours of dialysis at 4 °C; for residual AOX1 activity: 6-minute preincubation, % of nondialyzed vehicle control. How it is done:
Simultaneously, another aliquot (150 μL) of the primary incubation mixture was transferred to a Slide-A-Lyzer mini dialysis device (0.1 mL) with a molecular weight cutoff of 10,000 (Pierce Chemical Co.) and placed in a beaker filled with 300 mL of ice-cold potassium phosphate buffer (100 mM, pH 7.4). Additionally, potassium phosphate buffer (300 mL) was replaced at 2 and 4 hours after the start of dialysis. Dialysis was performed at 4 °C for 4 and 24 hours with constant gentle stirring. Subsequently, 10 μL of the dialyzed mixture was transferred to the secondary incubation mixture and the residual AOX1 enzyme activity was determined by the carbazeran 4-oxidation assay.

The target in data set [2] is T1, human liver cytosolic AOX1. The data set can be described thus: Effects of nucleophilic trapping agents and scavengers of reactive oxygen species on AOX1 inactivation. The format is biochemical. Further details: Enzymatic reaction was initiated by adding human liver cytosol (100 μg); tissue Corning, Inc. (Gentest brand) 452115; host or cells: human liver cytosol, pool of 150 donors. As to conditions: inactivator 1.5 μM; for effect of catalase and superoxide dismutase on AOX1 inactivation: catalase 1000 and 2000 U, superoxide dismutase 500 and 1000 U; for effect of glutathione and N-acetylcysteine on AOX1 inactivation: glutathione or N-acetylcysteine 5 and 10 mM, 6 min. Here is the method: The control incubations were described in our previous publication.[28] Each standard incubation mixture was subjected to the same procedures as described in Enzyme Inactivation Experiments. The residual AOX1 enzyme activity was determined by the carbazeran 4-oxidation assay.

In data set [3] the target is T1, human liver cytosolic AOX1. As to the kind of experiment: AOX1 inactivation, O^6-benzylguanine 8-oxidation by human liver cytosol. The format is biochemical. Further details: Enzymatic reaction was initiated by adding human liver cytosol (100 μg); tissue Corning, Inc. (Gentest brand) 452115; host or cells: human liver cytosol, pool of 150 donors. As to conditions: gefitinib 3, 10, 30 μM.

Data set [4] has as its target T1, human liver cytosolic AOX1. The data set can be described thus: Partition ratio determination (titration, human liver cytosol). The format is biochemical. Further details: Enzymatic reaction was initiated by adding human liver cytosol (100 μg); tissue Corning, Inc. (Gentest brand) 452115; host or cells: human liver cytosol, pool of 150 donors. Conditions: for Turnover Number: human liver cytosol; for Partition Ratio: turnover number minus 1; for partition ratio, fold greater than erlotinib / turnover number and partition ratio, fold greater than erlotinib: Table 1 values. How it is done: The enzyme kinetic experiments were conducted as described above. The incubation was allowed to proceed until saturation of enzyme has been reached (6 or 18 minutes, as specified in each figure legend). Carbazeran 4-oxidation was plotted against the ratio of inactivator concentration to AOX1 protein concentration in the incubation mixture of 200 μL. The specific lot of human liver cytosol (#38292) used in this study contained 1.05 ± 0.01 pmol/μL (mean ± SD) of AOX1 protein, as assessed by capillary nanoproteomic immunoassay.[27] The turnover number was the extrapolation of the intercept of the 2 linear regression lines to the x-axis, which was determined by solving the 2 linear regression equations. The partition ratio was calculated by subtracting the turnover number by 1, assuming 1:1 stoichiometry between the inactivator and the enzyme.[29]

A short description of data set [5]: Human plasma concentrations after erlotinib dosing (literature).

Regarding `C#Cc1cccc(Nc2ncnc3cc(OCCOC)c(OCCO)cc23)c1` [O-Desmethylerlotinib, O-desmethylerlotinib], in data set [1], the “recovery of carbazeran 4-oxidation activity after dialysis” value (shortened to “recovery”) is “not reversed”. For the same compound, in data set [2], the “effect of catalase and superoxide dismutase on AOX1 inactivation” value was “did not protect”; the “effect of glutathione and N-acetylcysteine on AOX1 inactivation” value is listed as “did not reduce the inactivation”. Further, in data set [3], the “effect of gefitinib on extent of AOX1 inactivation” value (from here on “effect of gefitinib”) is recorded as “attenuated”. In data set [4], the “Turnover Number” value came to 35.2 ± 4.78 and the “Partition Ratio” value is 34.2 ± 4.78. Also, the “Cmax,u” value in data set [5] (in vivo) lay in the range of 7.7 to 20 nM.
Turning to `C#Cc1cccc(Nc2nc(C)nc3cc(OCCOC)c(OCCOC)cc23)c1` [2-Methylerlotinib, 2-methylerlotinib], in data set [4], the “partition ratio, fold greater than erlotinib” value is given as 1.9 fold; the “Turnover Number” value is 49.9 ± 1.40; the “Partition Ratio” value came to 48.9 ± 1.40.
For `C#Cc1cc(Nc2ncnc3cc(OCCOC)c(OCCOC)cc23)ccc1C` [4′-Methylerlotinib, 4′-methylerlotinib], in data set [4], the “turnover number and partition ratio, fold greater than erlotinib” value stood at 1.6 fold; the “Turnover Number” value is reported as 42.9 ± 4.32; the “Partition Ratio” value was 41.9 ± 4.32.
Regarding `C#Cc1cccc(Nc2ncnc3cc(OCCO)c(OCCO)cc23)c1` [O-Didesmethylerlotinib, O-didesmethylerlotinib], the “recovery” value in data set [1] is recorded as “not reversed”. In addition, in data set [2], the “effect of catalase and superoxide dismutase on AOX1 inactivation” value is given as “did not protect”; the “effect of glutathione and N-acetylcysteine on AOX1 inactivation” value is reported as “did not reduce the inactivation”. Moreover, in data set [3], the “effect of gefitinib” value is recorded as “attenuated”. For the same compound, in data set [4], the “Turnover Number” value was 24.6 ± 1.29 and the “Partition Ratio” value was 23.6 ± 1.29. In addition, the “Cmax,u” value in data set [5] (in vivo) was in the range of 0.1 to 0.8 nM.
Turning to `C=Cc1cccc(Nc2ncnc3cc(OCCOC)c(OCCOC)cc23)c1` [3-Vinylerlotinib, 3-vinylerlotinib], in data set [4], the “partition ratio, fold greater than erlotinib” value came out at 10 fold; the “turnover number and partition ratio, fold greater than erlotinib” value is 10 fold; the “Turnover Number” value is on record as 271 ± 23.5∗∗∗; the “Partition Ratio” value is 270 ± 23.5∗∗∗. In addition, in data set [4] (listed as 3-vinylerlotinib), the “Turnover Number” value stood at 271 and the “Partition Ratio” value is listed as 270.
With `C#Cc1cccc(Nc2ncnc3cc(OCCOC)c(OCCOC)cc23)c1` [Erlotinib], the “recovery” value in data set [1] is “not recovered”. The “residual AOX1 activity” value in data set [1] (24-hour dialysis at 4 °C) amounted to 3.7%. Further, in data set [1] (without dialysis), the “residual AOX1 activity” value was 7.8%. Moreover, in data set [2], the “effect of catalase and superoxide dismutase on AOX1 inactivation” value is given as “did not protect”; the “effect of glutathione and N-acetylcysteine on AOX1 inactivation” value is recorded as “did not reduce the inactivation”. In data set [3], the “effect of gefitinib” value is listed as “attenuated”. Also, the “Turnover Number” value in data set [4] is reported as 26.9 ± 1.30. In addition, in data set [5] (Cmax,u = plasma fu × Cmax, plasma fu = 0.07), the “Cmax,u” value was in the range of 310 to 380 nM.
